According to the supplement of paper PMC10307832:

Key:
Assay in all cases: relative viability (nuclei count vs DMSO), 5 days (fraction); higher = more cells survive
Pemetrexed + Lapatinib = compound: Nc1nc2[nH]cc(CCc3ccc(C(=O)N[C@@H](CCC(=O)O)C(=O)O)cc3)c2c(=O)[nH]1 [Pemetrexed] + CS(=O)(=O)CCNCc1ccc(-c2ccc3ncnc(Nc4ccc(OCc5cccc(F)c5)c(Cl)c4)c3c2)o1 [Lapatinib] (partner 2 µM)
Outline: (§1)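 The day after seeding in 1536-well plates, lung cancer cell lines were treated by pin tool with a single drug, or with a fixed anchor-drug dose together with five library-drug doses (not always all listed) in √10 steps. After 5 days, a combined fix-and-stain solution (final 0.05% Triton X-100, 1% formaldehyde, 1 ug/ml Hoechst) was added. Nuclei counted on 4× images gave relative viability as treated counts over vehicle counts, reported as the median of duplicate plates.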

Pemetrexed + Vorinostat = compound: Nc1nc2[nH]cc(CCc3ccc(C(=O)N[C@@H](CCC(=O)O)C(=O)O)cc3)c2c(=O)[nH]1 [Pemetrexed] + O=C(CCCCCCC(=O)Nc1ccccc1)NO [Vorinostat] (partner 1 µM)
Outline: as §1

Pemetrexed + Pictilisib = compound: Nc1nc2[nH]cc(CCc3ccc(C(=O)N[C@@H](CCC(=O)O)C(=O)O)cc3)c2c(=O)[nH]1 [Pemetrexed] + CS(=O)(=O)N1CCN(Cc2cc3nc(-c4cccc5[nH]ncc45)nc(N4CCOCC4)c3s2)CC1 [Pictilisib] (partner 1 µM)
Outline: as §1

Idelalisib + OSI-027 = compound: CC[C@H](Nc1ncnc2[nH]cnc12)c1nc2cccc(F)c2c(=O)n1-c1ccccc1 [Idelalisib] + COc1cccc2cc(-c3nc([C@H]4CC[C@H](C(=O)O)CC4)n4ncnc(N)c34)[nH]c12 [OSI-027] (partner 0.5 µM)
Outline: as §1

Row | Cell Line | relative viability (Pemetrexed + Lapatinib; first compound 0.002 µM) | relative viability (Pemetrexed + Lapatinib; first compound 0.006325 µM) | relative viability (Pemetrexed + Lapatinib; first compound 0.02 µM) | relative viability (Pemetrexed + Lapatinib; first compound 0.06325 µM) | relative viability (Pemetrexed + Lapatinib; first compound 0.2 µM) | relative viability (Pemetrexed + Vorinostat; first compound 0.002 µM) | relative viability (Pemetrexed + Vorinostat; first compound 0.006325 µM) | relative viability (Pemetrexed + Vorinostat; first compound 0.02 µM) | relative viability (Pemetrexed + Vorinostat; first compound 0.06325 µM) | relative viability (Pemetrexed + Vorinostat; first compound 0.2 µM) | relative viability (Pemetrexed + Pictilisib; first compound 0.002 µM) | relative viability (Pemetrexed + Pictilisib; first compound 0.006325 µM) | relative viability (Pemetrexed + Pictilisib; first compound 0.02 µM) | relative viability (Pemetrexed + Pictilisib; first compound 0.06325 µM) | relative viability (Pemetrexed + Pictilisib; first compound 0.2 µM) | relative viability (Idelalisib + OSI-027; first compound 0.04 µM) | relative viability (Idelalisib + OSI-027; first compound 0.1265 µM) | relative viability (Idelalisib + OSI-027; first compound 0.4 µM) | relative viability (Idelalisib + OSI-027; first compound 1.265 µM) | relative viability (Idelalisib + OSI-027; first compound 4 µM)
1 | LOU-NH91 | 0.799 | 0.792 | 0.734 | 0.58 | 0.514 | 0.878 | 0.906 | 1.02 | 0.591 | 0.395 | 0.511 | 0.488 | 0.551 | 0.453 | 0.392 | 0.776 | 0.732 | 0.687 | 0.517 | 0.708
2 | LU99A | 0.926 | 0.909 | 0.991 | 0.97 | 0.744 | 0.488 | 0.464 | 0.495 | 0.466 | 0.385 | 0.329 | 0.295 | 0.332 | 0.334 | 0.256 | 0.302 | 0.322 | 0.242 | 0.298 | 0.305
3 | NCI-H441 |  |  |  |  |  | 0.693 | 0.788 | 0.763 | 0.695 | 0.262 | 0.46 | 0.463 | 0.595 | 0.322 | 0.268 | 0.788 | 0.561 | 0.397 | 0.526 | 0.616
4 | NCI-H522 |  |  |  |  |  | 0.801 | 0.871 | 1.09 | 0.797 | 0.927 |  |  |  |  |  | 0.823 | 0.711 | 0.729 | 0.771 | 0.698
5 | NCI-H1299 | 0.926 | 0.92 | 0.964 | 0.955 | 0.918 |  |  |  |  |  | 0.86 | 0.724 | 1.06 | 0.762 | 0.536 |  |  |  |  | 
6 | NCI-H1563 | 0.83 | 0.804 | 0.921 | 0.971 | 0.986 |  |  |  |  |  | 0.705 | 0.609 | 0.665 | 0.634 | 0.625 | 0.766 | 0.757 | 0.703 | 0.767 | 0.701
7 | NCI-H1623 |  |  |  |  |  |  |  |  |  |  |  |  |  |  |  | 0.409 | 0.463 | 0.45 | 0.402 | 0.386
8 | NCI-H1648 |  |  |  |  |  | 0.397 | 0.138 | 0.399 | 0.465 | 0.551 |  |  |  |  |  | 0.272 | 0.368 | 0.261 | 0.285 | 0.26
9 | NCI-H1703 | 1.02 | 0.865 | 1.59 | 0.9 | 0.976 |  |  |  |  |  |  | 0.248 | 0.29 | 0.287 | 0.264 |  |  |  |  | 
10 | NCI-H1792 | 0.829 | 0.895 | 0.861 | 0.875 | 0.862 |  |  |  |  |  | 0.252 | 0.298 | 0.325 | 0.255 | 0.252 | 0.466 | 0.778 | 0.598 | 0.836 | 0.51
11 | NCI-H2342 |  |  |  |  |  | 0.824 | 0.831 | 0.749 | 0.773 | 0.843 |  |  |  |  |  | 0.587 | 0.613 | 0.582 | 0.641 | 0.618
12 | SW 900 |  |  |  |  |  | 0.499 | 0.523 | 0.682 | 0.576 | 0.406 |  |  |  |  |  | 0.553 | 0.642 | 0.376 | 0.744 | 0.373
